The text below walks through data of ChEMBL document CHEMBL1156743, “Design, synthesis, and biological evaluations of 2,5-diaryl-2,3-dihydro-1,3,4-oxadiazoline analogs of combretastatin-A4” (J Med Chem, 2010).

Converted amounts (≈) assume the structure as drawn. The source made the active and inactive calls. No cut-off for these calls is given here.

One data set deals with L1210. The data set is described as follows: Antiproliferative activity against mouse L1210 cells after 72 hrs by MTT assay. The format is functional, cell-based. As to conditions: L1210, 72 h. For orientation: Tetrazolium assays rely on reduction of a dye to a coloured formazan, in cell work by metabolically active cells.
Data set [1] deals with MDA-MB-435. Briefly: Antiproliferative activity against human MDA-MB-435 cells after 48 hrs by SRB assay. In kind it is functional, cell-based. To be noted: MDA-MB-435, 48 h. Background: Sulforhodamine B stains cellular protein and so reports cell mass.
Data set [2] has as its system A10. Briefly: Antiproliferative activity against rat A10 cells assessed as microtubule depolymerization after 18 to 24 hrs by indirect immunofluorescence technique. The format is functional, cell-based.
Data set [3] concerns MDA-MB-435. The data set is described as follows: Ratio of EC50 for rat A10 cells to IC50 for human MDA-MB-435 cells. The format is functional.
A short description of data set [4]: Relative aqueous solubility at pH 7.4 by filter plate assay. To be noted: buffer. The format is physicochemical.
For data set [5], the system named is A10. The data set is described as follows: Antiproliferative activity against rat A10 cells assessed as microtubule depolymerization at 1 uM after 18 hrs by indirect immunofluorescence technique. The format is functional, cell-based.
Data set [6] concerns HeLa. The data set is described as follows: Antiproliferative activity against human HeLa cells expressing wild type beta3 tubulin after 48 hrs by SRB assay. The format is functional, cell-based.
Data set [7] concerns SK-OV-3. The data set is described as follows: Antiproliferative activity against human SKOV3 cells expressing adenoviral MDR1 after 48 hrs by SRB assay. The format is functional, cell-based. To be noted: SK-OV-3, 48 h.
Data set [8] has as its system SK-OV-3. The data set is described as follows: Antiproliferative activity against human SKOV3 cells after 48 hrs by SRB assay. To be noted: SK-OV-3, 48 h. The format is functional, cell-based.
For data set [9], the system named is MDA-MB-435. The data set is described as follows: Cell cycle arrest in human MDA-MB-435 cells assessed as accumulation at G2/M phase at 0.5 uM after 18 hrs by flow cytometry. In kind it is functional, cell-based.
In data set [10] the test system is HeLa. Briefly: Antimitotic activity in human HeLa cells assessed as effect on DNA at 0.5 uM after 18 hrs by indirect immunofluorescence technique. In kind it is functional, cell-based.
Data set [11] concerns HeLa. Briefly: Antimitotic activity in human HeLa cells assessed as multipolar mitotic spindles at 0.5 uM after 18 hrs by indirect immunofluorescence technique. In kind it is functional, cell-based.
In data set [12] the test system is HeLa. The data set is described as follows: Antimitotic activity in human HeLa cells assessed as gamma-tubulin containing centrosomes at 0.5 uM after 18 hrs by indirect immunofluorescence technique. In kind it is functional, cell-based.
For data set [13], the system named is HeLa. Briefly: cells. To be noted: Homo sapiens, 48 h.
Description: Antiproliferative activity against human HeLa cells after 48 hrs by SRB assay
Data set [14] in a line: Antiproliferative activity against mouse B16F0 cells after 72 hrs by MTT assay. The format is functional.

Usually IC50 stands for the concentration needed to halve the response being measured. Usually EC50 stands for the midpoint of the concentration-response curve. For orientation: solubility means how much of the substance goes into solution per volume. Higher therefore signals much dissolved substance.

Regarding `COc1ccc(C2=NN(C(C)=O)C(c3ccccc3)O2)cc1` (stereo unspecified), the IC50 in the data set on L1210 was more than 100 µM.

In the data set on L1210, `COc1cc(C2=NN(C(C)=O)C(c3cccc([N+](=O)[O-])c3)O2)cc(OC)c1OC` (stereo unspecified) showed a half-inhibitory concentration (IC50) of 39 µM.

In the data set on L1210, `COc1cc(C2=NN(C(C)=O)C(c3ccc([N+](=O)[O-])cc3)O2)cc(OC)c1OC` (stereo unspecified) had an IC50 of 4.2 µM.

For `COc1ccc(OC)c(C2OC(c3cc(OC)c(OC)c(OC)c3)=NN2C(C)=O)c1` (stereo unspecified), in the data set with L1210, the 50% inhibitory concentration (IC50) amounted to 55 µM.

`COc1ccc(C2OC(c3cc(OC)c(OC)c(OC)c3)=NN2C(C)=O)cc1` (stereo unspecified) registered an IC50 in the data set with L1210 of 57 µM.

On to `COc1cc(C2=NN(C(C)=O)C(c3cccc(Br)c3)O2)cc(OC)c1OC` (stereo unspecified), for which the IC50 in the data set on L1210 came to 0.6 µM; in the data set with MDA-MB-435 [1] it was 0.15 µM. Further, the EC50 in the data set on A10 [2] stood at 1.5 µM. Further, the Ratio with MDA-MB-435 [3] was determined as 10. In data set [4], the solubility came out at 66 µM (≈ 28.7 µg/mL).

`COc1ccc(C2=NN(C(C)=O)C(c3ccc(OC)c(OC(C)=O)c3)O2)cc1` (stereo unspecified): the IC50 in the data set with L1210 was more than 100 µM.

The compound `COc1ccc(C2=NN(C(C)=O)C(c3ccc(OC)c([N+](=O)[O-])c3)O2)cc1` (stereo unspecified) returned an IC50 in the data set with L1210 of more than 100 µM.

`COc1ccc(C2OC(c3cc(OC)c(OC)c(OC)c3)=NN2C(C)=O)cc1OC(C)=O` (stereo unspecified): the IC50 with L1210 came out at 3.9 µM; in the data set with MDA-MB-435 [1] it was 3.3 µM. In the data set on A10 [2], the 50% effective concentration (EC50) was determined as 10.2 µM. In the data set with MDA-MB-435 [3], the Ratio came out at 3.1. For the same compound, the solubility in [4] amounted to 112 µM (≈ 49.8 µg/mL).

In the data set on L1210, `COc1cc(C2=NN(C(C)=O)C(c3ccccc3)O2)cc(OC)c1OC` (stereo unspecified) returned a half-maximal inhibitory concentration (IC50) of 6.4 µM.

`COc1ccc(C2=NN(C(C)=O)C(c3ccccc3OC)O2)cc1` (stereo unspecified) came in with an IC50 with L1210 of 5.8 µM.

Regarding `COc1cc(C2=NN(C(C)=O)C(c3cc(OC)c(OC)c(OC)c3)O2)cc(OC)c1OC` (stereo unspecified), the concentration for half-maximal inhibition (IC50) in the data set on L1210 was more than 100 µM.

Consider `COc1ccc(C2=NN(C(C)=O)C(c3ccc([N+](=O)[O-])cc3)O2)cc1` (stereo unspecified), for which it took 68 µM to reach half-maximal inhibition in the data set with L1210 (IC50).

`COc1ccccc1C1OC(c2cc(OC)c(OC)c(OC)c2)=NN1C(C)=O` (stereo unspecified): the midpoint of inhibition in the data set on L1210, the IC50, lay at 48 µM.

As for `COc1ccc(C2=NN(C(C)=O)C(c3cc(OC)c(OC)c(OC)c3)O2)cc1` (stereo unspecified), the IC50 with L1210 amounted to 0.5 µM; in the data set on MDA-MB-435 [1] it was 0.14 µM; with HeLa [6], 0.27 µM; in the data set with SK-OV-3 [7] it was 0.45 µM; in the data set on SK-OV-3 [8], 0.34 µM; with HeLa [13], 0.23 µM. For the same compound, in the data set on A10 [2], the EC50 amounted to 0.5 µM. Also, the outcome with A10 [5], in the data set with MDA-MB-435 [9], with HeLa [10], with HeLa [11] and with HeLa [12] was Active. Moreover, the Ratio with MDA-MB-435 [3] is 3.6. This compound also came in with a solubility in data set [4] of 257 µM (≈ 99.3 µg/mL).

`COc1ccc(C2=NN(C(C)=O)C(c3cccc(Br)c3)O2)cc1` (stereo unspecified): the IC50 with L1210 is 37 µM.

For `COc1ccc(C2=NN(C(C)=O)C(c3cc(OC)cc(OC)c3)O2)cc1` (stereo unspecified), the IC50 came out at 0.5 µM in the data set on L1210 and 0.11 µM in the data set on MDA-MB-435 [1]. Moreover, the EC50 in the data set with A10 [2] came to 1 µM. Moreover, the Ratio in the data set with MDA-MB-435 [3] was 9.1. The compound further showed a solubility in [4] of 94 µM (≈ 33.5 µg/mL).

As for `COc1ccc(C2=NN(C(C)=O)C(c3cc(OC)ccc3OC)O2)cc1` (stereo unspecified), the IC50 with L1210 worked out at 0.5 µM; in the data set on MDA-MB-435 [1] it was 0.2 µM. Further, the concentration for a half-maximal effect (EC50) in the data set on A10 [2] was 1.3 µM. In the data set with MDA-MB-435 [3], the Ratio stood at 6.5. The solubility in data set [4] amounted to 259 µM (≈ 92.3 µg/mL).

Regarding `COc1ccc(C2OC(c3cc(OC)c(OC)c(OC)c3)=NN2C(C)=O)cc1[N+](=O)[O-]` (stereo unspecified), it took 58 µM to reach half-maximal inhibition in the data set with L1210 (IC50). That is a double-digit micromolar value.

As to `COc1cc(OC)cc(C2OC(c3cc(OC)c(OC)c(OC)c3)=NN2C(C)=O)c1` (stereo unspecified), the IC50 in the data set with L1210 was determined as 5.9 µM.

Regarding `COc1cccc(C2OC(c3cc(OC)c(OC)c(OC)c3)=NN2C(C)=O)c1` (stereo unspecified), the IC50 in the data set with L1210 is 45 µM. Compared with the last compound, the IC50 is about 7.6-fold higher.

Turning to `COc1ccc(/C=C\c2cc(OC)c(OC)c(OC)c2)cc1O` [COMBRETASTATIN A4], in [14], the Activity was 0.003 µM. The EC50 with A10 [2] was determined as 0.007 µM. The solubility in data set [4] stood at 350 µM (≈ 111 µg/mL).

As for `COc1ccc(C2=NN(C(C)=O)C(c3cccc([N+](=O)[O-])c3)O2)cc1` (stereo unspecified), 47 µM corresponded to half-maximal inhibition in the data set with L1210 (IC50).

With `COc1ccc(C2=NN(C(C)=O)C(c3ccc(OC)cc3)O2)cc1` (stereo unspecified), in the data set with L1210, the IC50 was more than 100 µM.

In the data set with L1210, `COc1ccc(C2=NN(C(C)=O)C(c3cccc(OC)c3)O2)cc1` (stereo unspecified) had a concentration for half-maximal inhibition (IC50) of 41 µM.
